Measurements taken from patent publication US20260077071A1, “Targeted Delivery of Theranostic Agents” (Peter MacCallum Cancer Institute, priority 2022, published 2026).
Where two headings read alike, the source gives them in different places. Blank lines part the entries; values can stand above or below the compound they belong to. Square brackets hold non-standard residues; d marks the D form. Peptide text beside a SMILES is read from it. * marks the point of attachment. DOTA = O=C(O)CN1CCN(CC(=O)O)CCN(CC(=O)*)CCN(CC(=O)O)CC1; Phe(4-CF3) = N[C@@H](Cc1ccc(C(F)(F)F)cc1)C(=O)O; Phe(F5) = N[C@@H](Cc1c(F)c(F)c(F)c(F)c1F)C(=O)O; Phe(3,4-F2) = N[C@@H](Cc1ccc(F)c(F)c1)C(=O)O; Phe(4-Ac) = CC(=O)c1ccc(C[C@H](N)C(=O)O)cc1; Phe(4-CN) = N#Cc1ccc(C[C@H](N)C(=O)O)cc1; Phe(3-F) = N[C@@H](Cc1cccc(F)c1)C(=O)O; Phe(4-F) = N[C@@H](Cc1ccc(F)cc1)C(=O)O; 1Nal = N[C@@H](Cc1cccc2ccccc12)C(=O)O; NMeF = CN[C@@H](Cc1ccccc1)C(=O)O; NMeNle = CCCC[C@H](NC)C(=O)O; Sar = CNCC(=O)O

Target: T1, human full-length CCK-2 receptor (Homo sapiens, UniProt P32239)
T1 construct: stably transfected to over-express the human full-length CCK-2 receptor (A431-CCK-2R); expressed in transfected cells
T1 sequence (P32239 1-447): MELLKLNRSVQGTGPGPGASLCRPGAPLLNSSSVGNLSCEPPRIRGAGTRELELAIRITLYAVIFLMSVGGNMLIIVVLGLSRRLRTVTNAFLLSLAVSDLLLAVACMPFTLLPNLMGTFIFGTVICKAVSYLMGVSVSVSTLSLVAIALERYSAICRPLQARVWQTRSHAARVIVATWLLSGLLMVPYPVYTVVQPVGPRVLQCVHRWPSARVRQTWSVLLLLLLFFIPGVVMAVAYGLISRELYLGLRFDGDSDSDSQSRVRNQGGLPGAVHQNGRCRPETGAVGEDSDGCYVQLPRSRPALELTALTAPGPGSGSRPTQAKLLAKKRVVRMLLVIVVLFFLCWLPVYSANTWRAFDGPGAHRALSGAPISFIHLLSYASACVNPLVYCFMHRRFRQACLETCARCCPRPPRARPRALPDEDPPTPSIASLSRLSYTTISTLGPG
Assay: Competitive ligand binding against [^177Lu]Lu-DOTA-CP04 in A431-CCK-2R cells
Conditions: for loss of binding affinity / activity: D-Ala analogue versus baseline comparative example-1
Protocol: CCK-2 receptor binding experiments were conducted using A431 (human epidermoid carcinoma) cells stably transfected to over-express the human full-length CCK-2 receptor (A431-CCK-2R). As a negative control, A431 cells stably transfected with an empty vector were analysed simultaneously (A431-EV). A431 cells were maintained in DMEM (Gibco, Australia) media supplemented with 10% foetal calf serum and 250 μg/mL G418 as described previously (Aloj L, et al., J Nucl Med., 2004, Mar; 45(3), 485-94). The affinity of peptides for the CCK-2R was evaluated using competitive binding assays against [^177Lu]Lu-DOTA-CP04 in A431-CCK-2R cells. Briefly, 48 h before the experiment cells were plated at a density of 650,000 cells per well in 6 well plates. On the day of the experiment the peptides were diluted in DMEM supplemented with 1% foetal calf serum to at least 7 different concentrations (0-400 nM) and approximately 50,000 cpm of [^177Lu]Lu-DOTA-CP04 was added to each dilution. Cells were washed twice in ice-cold binding buffer (DMEM supplemented with 1% foetal calf serum) and resuspended in 1.5 mL of the pre-prepared compound mix before being incubated at 37° C. for 1 h. Post-incubation the media was removed and kept for analysis (unbound fraction) and the cells were washed twice in ice-cold binding buffer, which was pooled with the unbound fraction. Finally, 1 M NaOH was added to the cells and allowed to incubate for 5 min before lysates were collected (bound fraction). A small volume of lysate was kept aside to determine protein concentration using the Pierce® BCA protein assay kit (Thermo Fisher, Australia). All samples were analysed using the Perkin Elmer 2480 Wizard2™ gamma counter (PerkinElmer, Massachusetts, USA) and were normalised according to protein concentration. Half-maximal inhibitory concentrations (IC50) were determined using nonlinear regression calculated using GraphPad Prism Software (GraphPad Software, California, USA).
The compounds were evaluated for their ability to disrupt the binding between CCK-2 receptor (CCK-2R) and [^177Lu]Lu-DOTA-CP04 using the methodology described above and compared to comparative example-2 (FIG. 2; Table 5).

[1] = modified peptides based on Peptide C (Table 4), read-out: IC50
[2] = D-Ala substituted peptides (Table 2), against [^177Lu]Lu-DOTA-CP04 in A431-CCK-2R cells, read-out: IC50

SMILES: CCCC[C@@H](C(=O)N[C@@H](CC(=O)O)C(=O)N[C@@H](Cc1ccc(F)c(F)c1)C(N)=O)N(C)C(=O)[C@H](Cc1c[nH]c2ccccc12)NC(=O)CN(C)C(=O)[C@H](Cc1ccc(O)cc1)NC(=O)[C@H](C)NC(=O)[C@@H](CCC(=O)O)NC(=O)[C@@H](CCC(=O)O)NC(=O)[C@@H](CCC(=O)O)NC(=O)[C@@H](C)NC(=O)[C@@H](CCC(=O)O)NC(=O)[C@H](N)CCC(=O)O [Peptide S] (H-[dE][dE][dA][dE][dE][dE]AY[Sar]W[NMeNle]D[Phe(3,4-F2)]-NH2; N-terminus assumed)
IC50: 2.66 ± 0.226 nM

IC50 [1]: 0.948 ± 0.052 nM
SMILES: CCCC[C@@H](C(=O)N[C@@H](CC(=O)O)C(=O)N[C@@H](Cc1ccc(C(C)=O)cc1)C(N)=O)N(C)C(=O)[C@H](Cc1c[nH]c2ccccc12)NC(=O)CN(C)C(=O)[C@H](Cc1ccc(O)cc1)NC(=O)[C@H](C)NC(=O)[C@@H](CCC(=O)O)NC(=O)[C@@H](CCC(=O)O)NC(=O)[C@@H](CCC(=O)O)NC(=O)[C@@H](C)NC(=O)[C@@H](CCC(=O)O)NC(=O)[C@H](N)CCC(=O)O [V] (H-[dE][dE][dA][dE][dE][dE]AY[Sar]W[NMeNle]D[Phe(4-Ac)]-NH2; N-terminus assumed)

IC50 [2]: 0.18 nM
improvement upon the activity of CP04 (versus CP04): greater than 10 fold
affinity exceeding that of the comparative peptide (versus comparative example-1): ~2 fold
SMILES: CCCC[C@@H](C(=O)N[C@@H](CC(=O)O)C(=O)N[C@@H](Cc1cccc2ccccc12)C(N)=O)N(C)C(=O)[C@H](Cc1c[nH]c2ccccc12)NC(=O)CN(C)C(=O)[C@H](Cc1ccc(O)cc1)NC(=O)[C@H](C)NC(=O)[C@@H](CCC(=O)O)NC(=O)[C@@H](CCC(=O)O)NC(=O)[C@@H](CCC(=O)O)NC(=O)[C@@H](C)NC(=O)[C@@H](CCC(=O)O)NC(=O)[C@H](N)CCC(=O)O [Peptide C] (H-[dE][dE][dA][dE][dE][dE]AY[Sar]W[NMeNle]D[1Nal]-NH2)

IC50 [1]: 0.368 ± 0.04 nM
SMILES: CCCC[C@@H](C(=O)N[C@@H](CC(=O)O)C(=O)N[C@@H](Cc1ccc(F)cc1)C(N)=O)N(C)C(=O)[C@H](Cc1c[nH]c2ccccc12)NC(=O)CN(C)C(=O)[C@H](Cc1ccc(O)cc1)NC(=O)[C@H](C)NC(=O)[C@@H](CCC(=O)O)NC(=O)[C@@H](CCC(=O)O)NC(=O)[C@@H](CCC(=O)O)NC(=O)[C@@H](C)NC(=O)[C@@H](CCC(=O)O)NC(=O)[C@H](N)CCC(=O)O [O] (H-[dE][dE][dA][dE][dE][dE]AY[Sar]W[NMeNle]D[Phe(4-F)]-NH2; N-terminus assumed)

IC50 (^natGa chelated DOTA-compounds based on Peptide C (Table 5), read-out: IC50): 0.185 nM
SMILES: CCCC[C@@H](C(=O)N[C@@H](CC(=O)O)C(=O)N(C)[C@@H](Cc1ccccc1)C(N)=O)N(C)C(=O)[C@H](Cc1c[nH]c2ccccc12)NC(=O)CN(C)C(=O)[C@H](Cc1ccc(O)cc1)NC(=O)[C@H](C)NC(=O)[C@@H](CCC(=O)O)NC(=O)[C@@H](CCC(=O)O)NC(=O)[C@@H](CCC(=O)O)NC(=O)[C@@H](C)NC(=O)[C@@H](CCC(=O)O)NC(=O)[C@@H](CCC(=O)O)NC(=O)CN1CCN(CC(=O)O)CCN(CC(=O)O)CCN(CC(=O)O)CC1 [^natGa-2, metal not drawn] ({DOTA}-[dE][dE][dA][dE][dE][dE]AY[Sar]W[NMeNle]D[NMeF]-NH2)

loss of binding affinity / activity: equivalent loss of activity
SMILES: CCCC[C@@H](C(=O)N[C@@H](CC(=O)O)C(=O)N[C@@H](Cc1cccc2ccccc12)C(N)=O)N(C)C(=O)[C@H](Cc1c[nH]c2ccccc12)NC(=O)CN(C)C(=O)[C@H](Cc1ccc(O)cc1)NC(=O)[C@H](C)NC(=O)[C@@H](CCC(=O)O)NC(=O)[C@@H](C)NC(=O)[C@@H](CCC(=O)O)NC(=O)[C@@H](CCC(=O)O)NC(=O)[C@@H](CCC(=O)O)NC(=O)[C@H](N)CCC(=O)O [E] (H-[dE][dE][dE][dE][dA][dE]AY[Sar]W[NMeNle]D[1Nal]-NH2)

loss of binding affinity / activity: approx. 5 fold
IC50 [2]: 1.23 nM
SMILES: CCCC[C@@H](C(=O)N[C@@H](CC(=O)O)C(=O)N[C@@H](Cc1cccc2ccccc12)C(N)=O)N(C)C(=O)[C@H](Cc1c[nH]c2ccccc12)NC(=O)CN(C)C(=O)[C@H](Cc1ccc(O)cc1)NC(=O)[C@H](C)NC(=O)[C@@H](CCC(=O)O)NC(=O)[C@@H](CCC(=O)O)NC(=O)[C@@H](CCC(=O)O)NC(=O)[C@@H](CCC(=O)O)NC(=O)[C@@H](C)NC(=O)[C@H](N)CCC(=O)O [B] (H-[dE][dA][dE][dE][dE][dE]AY[Sar]W[NMeNle]D[1Nal]-NH2)

IC50 [1]: 1.57 ± 0.089 nM
SMILES: CCCC[C@@H](C(=O)N[C@@H](CC(=O)O)C(=O)N[C@@H](Cc1ccc(C#N)cc1)C(N)=O)N(C)C(=O)[C@H](Cc1c[nH]c2ccccc12)NC(=O)CN(C)C(=O)[C@H](Cc1ccc(O)cc1)NC(=O)[C@H](C)NC(=O)[C@@H](CCC(=O)O)NC(=O)[C@@H](CCC(=O)O)NC(=O)[C@@H](CCC(=O)O)NC(=O)[C@@H](C)NC(=O)[C@@H](CCC(=O)O)NC(=O)[C@H](N)CCC(=O)O [Q] (H-[dE][dE][dA][dE][dE][dE]AY[Sar]W[NMeNle]D[Phe(4-CN)]-NH2; N-terminus assumed)

loss of binding affinity / activity: approx. 5 fold
IC50 [2]: 1.62 nM
SMILES: CCCC[C@@H](C(=O)N[C@@H](CC(=O)O)C(=O)N[C@@H](Cc1cccc2ccccc12)C(N)=O)N(C)C(=O)[C@H](Cc1c[nH]c2ccccc12)NC(=O)CN(C)C(=O)[C@H](Cc1ccc(O)cc1)NC(=O)[C@H](C)NC(=O)[C@@H](C)NC(=O)[C@@H](CCC(=O)O)NC(=O)[C@@H](CCC(=O)O)NC(=O)[C@@H](CCC(=O)O)NC(=O)[C@@H](CCC(=O)O)NC(=O)[C@H](N)CCC(=O)O [F] (H-[dE][dE][dE][dE][dE][dA]AY[Sar]W[NMeNle]D[1Nal]-NH2)

IC50 [1]: 1.14 nM
SMILES: CCCC[C@@H](C(=O)N[C@@H](CC(=O)O)C(=O)N[C@@H](Cc1ccc(C(F)(F)F)cc1)C(N)=O)N(C)C(=O)[C@H](Cc1c[nH]c2ccccc12)NC(=O)CN(C)C(=O)[C@H](Cc1ccc(O)cc1)NC(=O)[C@H](C)NC(=O)[C@@H](CCC(=O)O)NC(=O)[C@@H](CCC(=O)O)NC(=O)[C@@H](CCC(=O)O)NC(=O)[C@@H](C)NC(=O)[C@@H](CCC(=O)O)NC(=O)[C@H](N)CCC(=O)O [P] (H-[dE][dE][dA][dE][dE][dE]AY[Sar]W[NMeNle]D[Phe(4-CF3)]-NH2; N-terminus assumed)

IC50 [1]: 0.305 ± 0.013 nM
SMILES: CCCC[C@@H](C(=O)N[C@@H](CC(=O)O)C(=O)N[C@@H](Cc1cccc(F)c1)C(N)=O)N(C)C(=O)[C@H](Cc1c[nH]c2ccccc12)NC(=O)CN(C)C(=O)[C@H](Cc1ccc(O)cc1)NC(=O)[C@H](C)NC(=O)[C@@H](CCC(=O)O)NC(=O)[C@@H](CCC(=O)O)NC(=O)[C@@H](CCC(=O)O)NC(=O)[C@@H](C)NC(=O)[C@@H](CCC(=O)O)NC(=O)[C@H](N)CCC(=O)O [U] (H-[dE][dE][dA][dE][dE][dE]AY[Sar]W[NMeNle]D[Phe(3-F)]-NH2; N-terminus assumed)

IC50 (substituted-phenylalanine peptides based on Cmp ex-1 (Table 3), read-out: IC50): 1.92 nM
SMILES: CCCC[C@@H](C(=O)N[C@@H](CC(=O)O)C(=O)N[C@@H](Cc1c(F)c(F)c(F)c(F)c1F)C(N)=O)N(C)C(=O)[C@H](Cc1c[nH]c2ccccc12)NC(=O)CN(C)C(=O)[C@H](Cc1ccc(O)cc1)NC(=O)[C@H](C)NC(=O)[C@@H](CCC(=O)O)NC(=O)[C@@H](CCC(=O)O)NC(=O)[C@@H](CCC(=O)O)NC(=O)[C@@H](CCC(=O)O)NC(=O)[C@@H](CCC(=O)O)NC(=O)[C@H](N)CCC(=O)O [J] (H-[dE][dE][dE][dE][dE][dE]AY[Sar]W[NMeNle]D[Phe(F5)]-NH2; N-terminus assumed)
